From US20240279191A1, “SMALL MOLECULE INHIBITORS OF TEAD-YAP” (The General Hospital Corporation, priority 2021, published 2024)

Tests used:
[1] = system: endogenous TEAD1-4 (pan-TEAD); assay: Inhibition of endogenous pan-TEAD palmitoylation in HEK293A cells; type: cell-based
Method: HEK293A cells with or without TEAD overexpression were pretreated with DMSO or TM2 in medium with 10% dialyzed fetal bovine serum (DFBS) for 8 h and labeled by Alkynyl Palmitic acid (1165, Click Chemistry Tools) for another 16 h. The cells were then washed and harvested by cold DPBS (14190250, Life Technologies). The cell pellets were isolated by centrifugation (500×g, 10 min) and lysed by TEA lysis buffer (50 mM TEA-HCl, pH 7.4, 150 mM NaCl, 1% Triton X-100, 0.2% SDS, 1×Protease inhibitor-EDTA free cocktail (05892791001, Roche), phosphatase inhibitor cocktail (P0044, Sigma-Aldrich)) on ice for 30 mins. The protein concentration was determined using Bio-Rad assay and adjusted to 1 mg/mL. 100 μL of protein sample mixture was treated with 10 μL of freshly prepared “click” mixture containing 1 mM TBTA, 10 mM TCEP, 10 mM CuSO4, 1 mM TBTA Biotin-Azide and incubated for 1 h at room temperature. The proteins were precipitated by chloroform/methanol/H20 mixture and redissolved with 2% SDS in 0.1% PBST. The solution was diluted with 0.1% PBST and incubated with prewashed streptavidin agarose beads (69203-3, E M D MILLIPORE). After rotation at room temperature for 2 h, the beads were then pelleted by centrifugation (500×g, 3 min) and washed with 0.2% SDS in PBS (3×1 mL). The bound proteins were eluted with a buffer containing 10 mM EDTA pH 8.2 and 95% formamide and analyzed with SDS-PAGE. […]

[2] = biological target: association of YAP with endogenous TEAD1 and pan-TEAD (Homo sapiens, UniProt P28347); assay: YAP co-immunoprecipitation (Co-IP) assay in H226 cells; type: cell-based; settings: H226, 24 h, dose-dependent, FIG. 5A
Chain of association of YAP with endogenous TEAD1 and pan-TEAD (P28347 whole entry): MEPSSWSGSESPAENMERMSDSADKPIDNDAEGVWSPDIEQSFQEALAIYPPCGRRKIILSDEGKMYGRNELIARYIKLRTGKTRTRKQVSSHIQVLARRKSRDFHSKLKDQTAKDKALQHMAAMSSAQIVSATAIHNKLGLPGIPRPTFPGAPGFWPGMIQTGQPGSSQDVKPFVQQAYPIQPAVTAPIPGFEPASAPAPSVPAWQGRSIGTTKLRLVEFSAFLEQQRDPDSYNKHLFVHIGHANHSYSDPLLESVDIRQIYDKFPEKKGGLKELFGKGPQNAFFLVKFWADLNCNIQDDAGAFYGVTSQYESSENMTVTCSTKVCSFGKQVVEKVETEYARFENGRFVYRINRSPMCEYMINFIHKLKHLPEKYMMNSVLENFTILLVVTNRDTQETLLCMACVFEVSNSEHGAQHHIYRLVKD
Method: H226 cells were treated with DMSO or TM2 for 24 h. The cells were then washed and harvested by cold DPBS. The cell pellets were isolated by centrifugation (500×g, 10 min) and lysed by lysis buffer (50 mM Tris-HCl pH 7.5, 10% Glycerol, 1% NP-40, 300 mM NaCl, 150 mM KCl, 5 mM EDTA, phosphatase inhibitor cocktail, complete EDTA-free protease inhibitors cocktail) on ice. After dilution with 50 mM Tris-HCl pH 7.5, 10% Glycerol, 1% NP-40, 5 mM EDTA, the protein samples were incubated with mouse anti-YAP antibody (sc-101199, Santa Cruz) overnight at 4° C. and immunoprecipitated with prewashed protein A/G beads (P5030-1, UBPBio) for another 4 h at 4° C. The bound proteins were washed with 0.1% PBST for three times and eluted with 1×SDS loading buffer and analyzed with SDS-PAGE. Anti-TEAD1 (1:1000, 12292S, Cell Signaling), anti-pan-TEAD (1:1000, 13295, Cell Signaling) or anti-YAP (1:1000, 140745, Cell Signaling) antibody were used to detect TEAD1, pan-TEAD or YAP, respectively. Secondary antibody was anti-rabbit (1:5000, 7074S, Cell Signaling).

[3] = system: TEAD-YAP target genes (CTGF, Cyr61, ANKRD1); assay: Quantitative RT-PCR of TEAD-YAP target genes in H226 cells; type: cell-based, Human
Method: […] The high-capacity cDNA reverse transcription kit (4368814, Life Technologies) was employed to obtain cDNA. Target genes expression (Cyr61, CTGF and ANKRD1) was measured with PowerUp SYB Green Master Mix kit (A25777, Life Technologies). β-actin was used as reference gene. The primers are shown below:

[4] = system: HCT116 cells; assay: Drug combination matrix TM2 + Trametinib, HCT116; type: cell-based, Human; settings: 5 doses TM2 x 9 doses trametinib, day 5, Bliss, FIG. 10
Method: (§1) The drug combination experiments were preformed using a drug combination matrix across 5 doses of TM2 (5 μM, 3-fold dilution) and 9 doses of Trametinib (10 μM, 3-fold dilution) in different tumor cell lines. Cell viability was determined at day 5 after the drugs administration by MTT. Drug synergy score was calculated followed Bliss rule. Synergy Score and Plot was generated by “Synergyfinder” package in R language.

[5] = system: DLD1 cells; assay: Drug combination matrix TM2 + Trametinib, DLD1; type: cell-based, Human; settings: 5 doses TM2 x 9 doses trametinib, day 5, Bliss, FIG. 8E
Method: as §1

[6] = biological target: DHODH(H) (Homo sapiens, UniProt Q02127); assay: DHODH(H) (Table F1); settings: three values in one cell
Chain of DHODH(H) (Q02127 whole entry): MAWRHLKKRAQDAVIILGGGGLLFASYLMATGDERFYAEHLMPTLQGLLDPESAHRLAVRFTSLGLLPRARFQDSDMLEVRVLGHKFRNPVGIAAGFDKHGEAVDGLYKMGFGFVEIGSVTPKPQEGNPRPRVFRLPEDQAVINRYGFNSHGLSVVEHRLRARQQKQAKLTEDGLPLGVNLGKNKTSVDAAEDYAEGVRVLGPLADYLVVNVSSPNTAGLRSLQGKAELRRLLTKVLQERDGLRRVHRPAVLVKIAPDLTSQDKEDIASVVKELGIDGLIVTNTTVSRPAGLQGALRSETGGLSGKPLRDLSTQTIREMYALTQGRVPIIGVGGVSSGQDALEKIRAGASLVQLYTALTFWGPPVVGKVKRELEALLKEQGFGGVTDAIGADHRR

[7] = system: KNS62; assay: KNS62 growth inhibition (SAR tables); type: cell-based
[8] = system: HCC95; assay: HCC95 growth inhibition (SAR tables); type: cell-based
[9] = Aqueous solubility (Aq Sol); type: physicochemical
[10] = Metabolic stability HLM; type: in vitro ADME, human
[11] = system: NCI-H28 cells; assay: Cell proliferation assay (MTT), NCI-H28; settings: Homo sapiens, NCI-H28, read-out: IC50 NCI-H28 cell proliferation
[12] = biological target: TEAD2 (Homo sapiens, UniProt Q15562); assay: Inhibition of TEAD2 auto-palmitoylation in vitro; settings: FIG. 1; 0.05 and 0.5 μM for 30 mins
Chain of TEAD2 (Q15562 whole entry): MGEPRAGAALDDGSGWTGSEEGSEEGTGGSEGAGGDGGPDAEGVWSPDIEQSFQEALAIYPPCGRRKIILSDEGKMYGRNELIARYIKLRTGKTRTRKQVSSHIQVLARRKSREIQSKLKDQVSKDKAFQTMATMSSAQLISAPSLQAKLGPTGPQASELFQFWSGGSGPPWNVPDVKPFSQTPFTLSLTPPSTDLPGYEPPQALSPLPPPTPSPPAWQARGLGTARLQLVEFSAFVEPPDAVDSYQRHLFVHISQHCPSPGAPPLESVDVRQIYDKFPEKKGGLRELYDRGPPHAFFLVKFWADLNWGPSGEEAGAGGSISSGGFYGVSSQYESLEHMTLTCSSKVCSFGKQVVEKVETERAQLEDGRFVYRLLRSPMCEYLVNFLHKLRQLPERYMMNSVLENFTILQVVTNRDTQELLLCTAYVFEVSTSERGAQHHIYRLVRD

- association of YAP with endogenous TEAD1 and pan-TEAD (in words) [2]: dramatically blocked
- DHODH(H):(GI50 μM/1,10 μM) [6]: 5/6/15
- Aq Sol [9]: 2.3 µM
- Met stab HLM, 15 min ([10]; 15 min): 44%
- Met stab HLM, 60 min ([10]; 60 min): 6%
- IC50 [11]: > 5 µM
- inhibition of TEAD2 auto-palmitoylation (in words) [12]: most potent compound
Structure (SMILES): O=C(Nc1ccccc1)N1CCN(C(=O)c2cccc(OCCC3CCCCC3)c2)CC1 [TM2, 4-(3-(2-cyclohexylethoxy)benzoyl)-N-phenylpiperazine-1-carboxamide]
- Pan-TEAD palmitoylation at 100 nM (in words) ([1]; 100 nM): diminished
- endogenous TEAD1-4 (pan-TEAD) palmitoylation (in words) ([1]; HEK293A, 24 h, FIG. 2D): significantly inhibits
- expression level of CTGF and ANKDR1 (in words) ([3]; H226, 24 and 48 h): significantly suppressed
- expression of Cyr61 (in words) ([3]; H226, 48 h): strong response
- combination with MEK inhibitor trametinib, HCT116 (in words) [4]: strong inhibitory effects and substantial synergy
- combination with MEK inhibitor trametinib, DLD1 (in words) [5]: strong inhibitory effects and substantial synergy
- KNS62: value at 1 μM ([7]; 1 μM): 37
- KNS62: value at 10 μM ([7]; 10 μM): 28
- HCC95: value at 1 μM ([8]; 1 μM): 37
- HCC95: value at 10 μM ([8]; 10 μM): 65
